Experimental data as given in US20080181940A1, “Method For Accelerating Expression of CPT-1” (Amorepacific Corporation, priority 2003, published 2008).

Experiments:
[1] = tested on: adipocytes of male SD rat; experiment: Acceleration of oxidation of neutral fat in adipocytes (glycerol released into the medium); assay type: cell-based; settings: added in 10 μmol unit, control = 100%, FIG. 1
Protocol: Epididymal adipose tissues obtained from male SD rat were cut to small pieces, and 0.1% of collagenase (in DMEM without phenol red) was added then cultured for 2 hours at 37° C., and then filtered to obtain adipocyte.
A control was cultured in a medium not containing the composition of the present invention (experimental material). In the experimental samples, genistein and/or L-carnitine was added in 10 μmol unit. Results are calculated relatively converting the control to be 100%. Degrees of oxidation of fats are determined by measuring the concentration of glycerol separated into the medium from the adipocytes.
Experiments were performed by taking cell cultures prepared by adding colorless DMEM (Dulbeco's modified eagles medium) containing 0.5% bovine serum albumin (BAS) without fatty acid to the adipocytes. The amount of glycerol was measured with color reaction method using GPO-trinder kit purchased from Sigma (St. Louis, Mo., U.S.A) and absorption in 540 nm was measured with ELISA reader.

[2] = tested on: obesity induced by high fat diet; experiment: Body weight and food consumption of rats on high fat diet, 8 weeks of dieting; assay type: in vivo, Sprague-Dawley white male rat; settings: for Body weight after dieting: after 8 weeks, high fat diet + 0.2% of each substance in diet, n = 12; for increase of body weight compared with control group with high fat diet: words, 0.2% in high fat diet, 8 weeks
Text: In order to verify the effects of the present composition to the metabolism of lipid in the fat animals induced by dieting high fat diet, Sprague-Dawley white male rat model was selected. In order to verify the effects of genistein, diadzein and glycitein to the obesity induced from high fat diet, rats of 6 weeks old were adapted for a week and assigned 12 rats for each experimental group. Experimental groups are as follows: (1) normal fat diet; (2) high fat diet; (3) high fat diet+genistein 0.2%; (4) high fat diet+L-carnitine 0.2%; (5) high fat diet+genistein 0.2%+L-carnitine 0.2%; (6) high fat diet+diadzein 0.2%; (7) high fat diet+diadzein 0.2%+L-carnitine 0.2%; (8) high fat diet+glycitein 0.2%; and (9) high fat diet+glycitein 0.2%+L-carnitine 0.2%, and the rats were […] for 8 weeks. […] The amount of diet consumed and body weight was measure three times per week during dieting.

[3] = tested on: obesity induced by high fat diet; experiment: Weight of epididymal adipose tissue of rats after 8 weeks of high fat diet; assay type: in vivo, Sprague-Dawley white male rat; settings: for Weight of epididymal adipose: after 8 weeks, high fat diet + 0.2% of each substance in diet, n = 12; for weight of epididymal adipose compared with control group with high fat diet: words, 0.2% in high fat diet, 8 weeks
Text: In order to verify the effects of the present composition to the metabolism of lipid in the fat animals induced by dieting high fat diet, Sprague-Dawley white male rat model was selected. In order to verify the effects of genistein, diadzein and glycitein to the obesity induced from high fat diet, rats of 6 weeks old were adapted for a week and assigned 12 rats for each experimental group. Experimental groups are as follows: (1) normal fat diet; (2) high fat diet; (3) high fat diet+genistein 0.2%; (4) high fat diet+L-carnitine 0.2%; (5) high fat diet+genistein 0.2%+L-carnitine 0.2%; (6) high fat diet+diadzein 0.2%; (7) high fat diet+diadzein 0.2%+L-carnitine 0.2%; (8) high fat diet+glycitein 0.2%; and (9) high fat diet+glycitein 0.2%+L-carnitine 0.2%, and the rats were dieted for 8 weeks. Basic experimental diet was purified AIN-93G diet, and high fat diet was prepared to have fat occupy 36% of the total energy (18% of the total diet), normal fat diet was prepared to have fat occupy 17% of the total energy (7% of the total diet).
After 8 weeks of dieting with the groups of normal fat diet, high fat diet, high fat diet+genistein (0.2%), high fat diet+L-carnitine (0.2%), high fat diet+genistein (0.2%)+L-carnitine (0.2%), high fat diet+diadzein (0.2%), high fat diet+diadzein (0.2%)+L-carnitine (0.2%), high fat diet+glycitein (0.2%) and high fat diet+glycitein (0.2%)+L-carnitine (0.2%), the rats were sacrificed to obtain epididymal adipose tissues. The above obtained epididymal adipose tissues were washed with saline and moistures were removed on a filter bed, then weights were measured.

CPT-1 = experiment: Expression of CPT-1 mRNA in liver by northern blotting and densitometry; assay type: in vivo, rat; settings: 8 weeks
Text: After 8 weeks of dieting with following four (4) groups of high fat diet, high fat diet+genistein (0.2%), high fat diet+genistein (0.2%)+L-carnitine (0.2%) and high fat diet+genistein (0.4%), the rats were sacrificed to obtain liver tissues thereof. After homogenizing the liver tissues, RNA were extracted from the tissues using TRIZOL (Life Technologies, grand Island, N.Y., USA) consisting of phenol and guanidine isothiocyanate. Degree of expression of CPT-1 mRNA from the above extracted RNA was measured by northern blotting test, and expressed quantitatively by densitometry as shown in FIGS. 2a and 2b.

[4] = cited from earlier work

In the case of `O=c1c(-c2ccc(O)cc2)coc2cc(O)cc(O)c12` [genistein], the “oxidation of fatty acids increased compared with that of the control” value [1] is reported as 1.92 times, the “Body weight after dieting” value [2] is reported as 433.5 ± 19.4 g and the “increase of body weight compared with control group with high fat diet” value (“increase of body weight” for short) [2] is reported as “small”. The “Weight of epididymal adipose” value [3] was 5.2 ± 0.67 g, the “weight of epididymal adipose compared with control group with high fat diet” value [3] was “small” and the “expression of CPT-1 compared with the group of high fat diet” value (CPT-1; 0.2% of each substance in high fat diet, FIG. 2b) was “increased”. The “dependence of the expression of CPT-1 on concentration” value (CPT-1; genistein 0.2% vs 0.4% in high fat diet) was “increases positively according to the concentration of genistein”, the “side effects of an excessive quantity, female rats” value ([4]; female rats) was “disorder of secretion” and the “side effects of an excessive quantity, male rats” value ([4]; male rats) was “reduction of spermatozoa and sperm”.
For `COc1cc2c(=O)c(-c3ccc(O)cc3)coc2cc1O` [glycitein], the “Body weight after dieting” value [2] was 446.4 ± 21.6 g, the “increase of body weight” value [2] was “also small” and the “Weight of epididymal adipose” value [3] was 6.3 ± 0.41 g. The “weight of epididymal adipose compared with control group with high fat diet” value [3] was “also small”.
In the case of `O=c1c(-c2ccc(O)cc2)coc2cc(O)ccc12` [diadzein], the “Body weight after dieting” value [2] is reported as 441.3 ± 19.4 g, the “increase of body weight” value [2] is reported as “also small” and the “Weight of epididymal adipose” value [3] is reported as 6.1 ± 0.35 g. For the same compound, the “weight of epididymal adipose compared with control group with high fat diet” value [3] was “also small”.
With `C[N+](C)(C)CC(O)CC(=O)[O-]` [L-carnitine, β-hydroxy-γ-trimethylammonium butyric acid] the “oxidation of fatty acids increased compared with that of the control” value [1] was 2.07 times, the “Body weight after dieting” value [2] was 465.1 ± 31.8 g and the “increase of body weight” value [2] was “almost the same”. For the same compound, the “Weight of epididymal adipose” value [3] was 7.9 ± 0.45 g and the “weight of epididymal adipose compared with control group with high fat diet” value [3] was “almost the same”.
